Source: patent US20170333407A1, “METHOD FOR TREATING UNDERACTIVE BLADDER SYNDROME” (William Beaumont Hospital, priority 2014, published 2017)
“And” between values parts separate entries of the source, which are not always exact repeats. Equal entries are not always repeated. “Also recorded” adds a separate entry of the source.

System: patients with symptoms of UAB syndrome
Experiment: Treatment of patients with symptoms of UAB syndrome with cevimeline (Qmax, PVR, UAB symptom questionnaire)
Assay type: in vivo, human
Settings: for UAB Score: five-question UAB symptom questionnaire, lower score = improvement; for UAB Score / PVR (residual urine volume in the bladder) / Qmax (maximum urine flow rate): individual patients
Description: Six different patients who each suffered from one or more medical conditions and symptoms of UAB syndrome were examined. UAB symptom-related data obtained from the patients before and after treatment with cevimeline was obtained from some of the patients and is presented below in Tables I-IV. […] Quantitative measurements were made to determine maximum urine flow rate Qmax (expressed in mL/s) and residual urine volume in the bladder PVR (expressed in mL). Qualitative measurements were obtained based on the patient's perceived UAB symptoms. A lower UAB score indicates an improvement in UAB symptoms. […] 4 and 6 after one week of treatment with cevimeline. Cevimeline was administered to each patient in 30 mg doses, three times per day. […] Specifically, the volume of residual urine in the bladder of patient 6 decreased from a baseline volume of 120 mL to a treated volume of 28 mL. To assess for qualitative improvement of UAB symptoms upon administration of cevimeline, patients were surveyed using a five-question UAB symptom questionnaire. The UAB score was then tallied from the patient responses. […] 4 and 6 after a two-week treatment with cevimeline. Cevimeline was administered to each patient in 60 mg doses, three times per day.

[1] = after one week of treatment with cevimeline 30 mg tid
[2] = after two weeks of treatment with cevimeline 60 mg tid

With `C[C@@H]1O[C@@]2(CS1)CN1CCC2CC1` [cevimeline, (2R,5R)-2-methylspiro[1,3-oxathiolane-5,3′-1-azabicyclo[2.2.2]octane]] the “UAB Score” value [1] was 12 and 9 (2×), the “PVR (residual urine volume in the bladder)” value [1] was 28 mL and 240 mL and the “Qmax (maximum urine flow rate)” value [1] was 2.9 mL/s and 3 mL/s. For the same compound, the “improvement in UAB symptoms (in words)” value (after one week, 30 mg three times per day, patient 4 and patient 6) was “did not demonstrate any quantitative or qualitative improvement; also recorded: did show quantitative improvement”, the “UAB Score” value [2] was 7 and the “PVR (residual urine volume in the bladder)” value [2] was 92 mL and 69 mL. The “Qmax (maximum urine flow rate)” value [2] was 9.5 mL/s and 9.9 mL/s, the “improvement of UAB syndrome-related symptoms (in words)” value (after two-week treatment, 60 mg three times per day, patient 4 and patient 6) was “demonstrated both quantitative and qualitative improvements” and the “overall effect on symptoms related to UAB syndrome (in words)” value (initial data from preliminary studies) was “effective at treating the symptoms related to UAB syndrome”.
